# System: shunt pathway
# Experiment: Test Code 036 (C-Shunt inhibitor): lysis of fragile human erythrocytes in autologous serum via shunt pathway activated by cobra venom factor
# Format: cell-based
# Conditions: appropriate dilutions of test compound
# Source text: An active inhibitor protects C2 from C1 and C4; (ii) Test, Code 035 (c3-C9 inhibitor) -- This test determines the ability of the late components of human complement (C3-C9) to lyse EAC 142 in the presence of appropriate dilutions of the test compound. An active inhibitor protects EAC 142 from lysis by human C3-C9; (iii) Test, Code 036 (C-Shunt inhibitor) -- In this test human erythrocytes rendered fragile are lysed in autologous serum via the shunt pathway activated by cobra venom factor in the presence of appropriate dilutions of the test compound. Inhibition of the shunt pathway results in failure of lysis; (iv) Forssman Vasculitis Test -- Here, the well known complement dependent lesion, Forssman vasculitis, is produced in guinea pigs by intradermal injection of rabbit anti-Forssman antiserum. […]
smiles,measurement,value
"O=C(N[C@H]1C(OS(=O)(=O)O)O[C@H](COS(=O)(=O)O)[C@@H](OS(=O)(=O)O)[C@@H]1OS(=O)(=O)O)c1cc(C(=O)N[C@H]2C(OS(=O)(=O)O)O[C@H](COS(=O)(=O)O)[C@@H](OS(=O)(=O)O)[C@@H]2OS(=O)(=O)O)cc(C(=O)N[C@H]2C(OS(=O)(=O)O)O[C@H](COS(=O)(=O)O)[C@@H](OS(=O)(=O)O)[C@@H]2OS(=O)(=O)O)c1 (stereo partly drawn) [2,2',2""-[s-Phenenyltris(carbonylimino)]tris-2-deoxy-D-glucopyranose dodecakis (H-sulfate) dodecasalt with trimethylamine]",Shunt Inhibition 036 Wells,+3 Wells

# From patent US4120954A, “2,2',2"-[S-Phenenyltris(carbonylimino) ]tris-2-deoxy-D-glucopyranose and salts thereof” (American Cyanamid Company, priority 1977, dated 1978)
